Results on nine compounds are retold here after article PMC12461339, “Benzoylselenoureas: A Novel Dual-Action Inhibitor Targeting Fungal Growth and Urease Activity in Cryptococcus neoformans” (ACS Omega, 2025).

Each structure is given as a SMILES string. Values after ≈ are worked out from the molar mass of the structure shown. Values joined by “and” are separate entries in the source; they are usually repeats but may differ in a detail not shown here. Identical values can stand only once. Like-named read-outs stand apart in the source and are kept apart here. Bounds are passed on as bounds.

The subject of test [1] is C. neoformans H99. In words: Minimum fungicidal concentration by subculturing after MIC reading. It counts as cell-based. To be noted: Cryptococcus neoformans. Here is the method: After MIC readings, the MFC values were determined by subculturing, at 35 °C for 48 h, of all concentrations that inhibited the fungal growth; and then MFC was defined as the lowest concentration of the compound capable of reducing ≥99% viability of the initial fungal inoculum. ,

Test [2] deals with T1, yeast urease activity (Cryptococcus neoformans, UniProt O13465).
T1 construct: endogenous in cells; host or cells: Cryptococcus neoformans H99 (ATCC 208821) yeasts in Christensen urea broth
T1 sequence (O13465 whole entry): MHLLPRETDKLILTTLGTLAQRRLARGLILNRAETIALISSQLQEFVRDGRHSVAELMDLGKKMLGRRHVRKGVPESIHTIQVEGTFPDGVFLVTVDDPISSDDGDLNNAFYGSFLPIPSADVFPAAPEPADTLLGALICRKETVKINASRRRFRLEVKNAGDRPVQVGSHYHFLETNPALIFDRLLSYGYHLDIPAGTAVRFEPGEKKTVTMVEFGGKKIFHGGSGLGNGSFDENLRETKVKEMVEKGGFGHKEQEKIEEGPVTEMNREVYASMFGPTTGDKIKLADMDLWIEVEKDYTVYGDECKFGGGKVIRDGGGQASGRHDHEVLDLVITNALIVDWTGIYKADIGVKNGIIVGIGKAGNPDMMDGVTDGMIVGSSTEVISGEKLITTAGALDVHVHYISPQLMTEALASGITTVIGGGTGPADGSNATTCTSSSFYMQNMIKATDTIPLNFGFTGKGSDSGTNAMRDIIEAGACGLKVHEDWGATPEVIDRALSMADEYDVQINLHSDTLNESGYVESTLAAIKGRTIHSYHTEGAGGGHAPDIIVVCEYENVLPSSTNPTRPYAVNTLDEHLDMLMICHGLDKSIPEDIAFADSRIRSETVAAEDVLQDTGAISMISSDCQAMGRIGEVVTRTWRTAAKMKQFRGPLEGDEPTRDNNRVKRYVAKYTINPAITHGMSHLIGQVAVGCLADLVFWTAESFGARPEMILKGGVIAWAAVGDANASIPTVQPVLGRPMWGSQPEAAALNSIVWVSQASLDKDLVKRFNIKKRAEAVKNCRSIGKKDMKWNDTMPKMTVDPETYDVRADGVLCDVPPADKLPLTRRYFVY
In words: Inhibition of yeast urease activity in urea (Christensen) medium, colour change (MICure). It counts as cell-based. Here is the method:
The inhibitory activity against yeast urease was assessed using Christensen’s medium, which contains urea to induce URE1 gene expression. […] Even in the presence of fungal growth, inhibition of urease activity was evidenced by the absence of medium color change, indicating suppressed ammonia production.
(§1) C. neoformans H99 (or ATCC 208821), a standard strain, was used to evaluate the antifungal activity of BSU1-BSU11 and BTU1-BTU11 compounds using the broth microdilution method. The assay was performed in two different culture media: the standard medium RPMI 1640 buffered with […] (RMPI), and the Christensen broth (urea medium: 1 g/L peptone, 1 g/L dextrose, 5 g/L sodium chloride, 2 g/L potassium phosphate, 20 g/L urea, 12 mg/L phenol red, pH 7.0). The compounds were dissolved in dimethyl sulfoxide (DMSO) and diluted in both media, obtaining final concentrations from 0.03 to 128 mg/L in a 96-well plate and final DMSO concentration below 0.5%, considered nontoxic. For assay, yeasts were distributed in each well to obtain a final inoculum of 0.5–2.5 × 10^3 CFU/mL, and the plate was incubated at 35 °C for 48 h.
(§2) The MIC values were determined in both media and were defined as the lowest concentrations of BSU1-BSU11 and BTU1-BTU11 that inhibited 50% of fungal growth visually compared with untreated yeasts (growth control). In addition, the urease activity was indicated by medium color change from orange to pink due to ammonia production and the MICure was defined as the lowest concentration that inhibited the urease activity by visual inspection in urea medium with no color changes. For both assays, two controls were included: untreated yeast group for observation of fungal growth pattern or intracellular urease activity, and wells containing only medium for assay sterility control.

In test [3] the target is T2, C. neoformans urease (Cryptococcus neoformans, UniProt O13465).
T2 construct: endogenous in cells; host or cells: Cryptococcus neoformans H99, lysed by sonication; dialysed and lyophilised soluble fraction (total protein)
T2 sequence (O13465 whole entry): as above
In words: Urease activity in crude protein extract, indophenol method. Conditions: ureIC50, BSU series. Type of test: biochemical. As to the method:
C. neoformans H99 yeasts were cultivated in 100 mL of Christensen broth for 72 h at 35 °C by shaking at 200 rpm for the obtention of urease as previously described. Briefly, the yeasts were ruptured using a lysis buffer (40 mM Tris-HCl, 20 mM dithiothreitol, 4% Triton X-100, 1 mM ethylenediaminetetraacetic acid, 2 mM phenylmethylsulfonyl fluoride, protease inhibitor cocktail) and an ultrasonic sonicator. After centrifugation, the soluble fraction was dialyzed in a dialysis membrane submerged in 10 mM sodium phosphate buffer, pH 7.0; the sample was lyophilized and stored at −20 °C. Before the assay, the sample was resuspended in 1 mL of sodium phosphate buffer (10 mM, pH 7.0), and the total protein was quantified by the Bradford method.
The urease activity was determined by the indophenol method. In a 96-well microplate, 10 μL of 100 mM urea was added to 45 μL of total protein and 45 μL of BSU1-BSU11 (concentrations of 0.06–1000 μg/L) in phosphate buffer. The reaction was maintained for 10 min under shaking at 600 rpm, at room temperature. Then, 45 μL of solution A (1% phenol; 0.005% sodium nitroprusside) and 70 μL of solution B (0.5% sodium hydroxide; 0.1% sodium hypochlorite) were immediately added to the wells in the dark and incubated for 5 min at 50 °C under shaking at 600 rpm. Urease activity was quantified by measuring absorbance at 670 nm. The inhibitory concentration capable of inhibiting 50% of urease activity (ureIC50) was determined by nonlinear regression calculation using the GraphPad Prism 5.0 software.

For test [4], the system named is C. neoformans H99. In words: Broth microdilution antifungal assay (MIC) in RPMI or urea medium. It counts as cell-based. Conditions: Cryptococcus neoformans. Here is the method: as §1, §2
Background: Dilution methods test growth across graded concentrations, often in twofold steps.

In test [5] the test system is C. neoformans. Set-up: method as in PMID 36960287. Conditions: against C. neoformans; cited from earlier work.
Setting [6] is: H99, BSU series, after assay in RPMI medium, ≥99% reduction of viability.
The mark [7] stands for this setting: H99, Table S1, RPMI medium line.
[8] abbreviates: H99, Table S1, urea medium line.
The mark [9] stands for this setting: BSU series, 100% inhibition of yeast urease activity in urea medium.
Where [10] appears, read: Table S1, urea medium, 100% inhibition of yeast urease activity.
Where [11] appears, read: H99, 48 h, read-out: MIC RPMI, BSU series, 50% inhibition of fungal growth, RPMI medium, 35 °C, 48 h.
[12] abbreviates: H99, 48 h, read-out: MIC urea, BSU series, 50% inhibition of fungal growth, urea medium, 35 °C, 48 h.
[13] abbreviates: H99, Table S1, RPMI medium, C. neoformans H99.
The mark [14] stands for this setting: H99, Table S1, urea medium, C. neoformans H99.

What is called MFC is the smallest concentration meeting the test's criterion for killing the fungus. Lower therefore signals greater fungicidal potency. The term IC50 denotes the point on the concentration scale where inhibition reaches its midpoint. As a reminder, the MIC is the least concentration at which growth counts as inhibited. Take `O=C(NC(=[Se])Nc1ccc(Br)cc1)c1ccccc1` [BSU8]: the MFC in test [1] (setting [6]) was more than 128 µg/mL; in test [1] (setting [7]) it was 8 µg/mL (≈ 20.9 µM); in test [1] (setting [8]), 0.5 µg/mL (≈ 1.31 µM). The MICURE in test [2] (setting [9]) worked out at 8 mg/L; in test [2] (setting [10]) it was 0.5 mg/L. In addition, in test [3], the IC50 is 4.04 nM and 4.03 nM. Besides, the MIC in test [4] (setting [11]) stood at 128 µg/mL (≈ 335 µM); in test [4] (setting [12]), 8 µg/mL (≈ 20.9 µM); in test [4] (setting [13]) it was 8 µg/mL (≈ 20.9 µM); in test [4] (setting [14]), 0.5 µg/mL (≈ 1.31 µM).

On to `O=C(NC(=[Se])Nc1cccc([N+](=O)[O-])c1)c1ccccc1` [BSU11], for which the results for the MFC in test [1] (setting [6]), in test [1] (setting [7]) and in test [1] (setting [8]) were 64 µg/mL (≈ 184 µM), more than 16 µg/mL and 1 µg/mL (≈ 2.87 µM), respectively. In addition, the MICURE in test [2] (setting [9]) and in test [2] (setting [10]) was 1 mg/L throughout. Moreover, in test [3], the IC50 was 7.91 nM and 7.93 nM. The MIC in test [4] (setting [11]) was found to be 32 µg/mL (≈ 91.9 µM); in test [4] (setting [12]) it was 1 µg/mL (≈ 2.87 µM); in test [4] (setting [13]), 16 µg/mL (≈ 45.9 µM); in test [4] (setting [14]) it was 1 µg/mL (≈ 2.87 µM).

For `COc1cccc(NC(=[Se])NC(=O)c2ccccc2)c1` [BSU5], the MFC in test [1] (setting [6]) worked out at 1 µg/mL (≈ 3 µM); in test [1] (setting [7]), 16 µg/mL (≈ 48 µM); in test [1] (setting [8]), 0.25 µg/mL (≈ 0.75 µM). Also, the MICURE in test [2] (setting [9]) and in test [2] (setting [10]) was 0.12 mg/L in each case. In addition, in test [3], half-maximal inhibition (IC50) required 14 nM. Also, the MIC turned out to be 1 µg/mL (≈ 3 µM) in test [4] (setting [11]), 0.12 µg/mL (≈ 0.36 µM) in test [4] (setting [12]), 8 µg/mL (≈ 24 µM) in test [4] (setting [13]) and 0.25 µg/mL (≈ 0.75 µM) in test [4] (setting [14]).

In the case of `CCCCNC(=S)NC(=O)c1ccccc1` [Compound 4, N-(butylcarbamothioyl)benzamide], the MIC in test [5] is 31.25 to 62.5 µg/mL.

Take `O=C(NC(=[Se])Nc1ccc(Cl)cc1)c1ccccc1` [BSU6]: the MFC in test [1] (setting [6]) was 16 µg/mL (≈ 47.4 µM); in test [1] (setting [7]) it was more than 16 µg/mL; in test [1] (setting [8]) it was 16 µg/mL (≈ 47.4 µM). For the same compound, the MICURE was determined as 0.25 mg/L in test [2] (setting [9]) and 8 mg/L in test [2] (setting [10]). The IC50 in test [3] is 3.02 nM. The MIC was 16 µg/mL (≈ 47.4 µM) in test [4] (setting [11]), 0.5 µg/mL (≈ 1.48 µM) in test [4] (setting [12]), more than 16 µg/mL in test [4] (setting [13]) and 8 µg/mL (≈ 23.7 µM) in test [4] (setting [14]).

Turning to `COc1ccccc1NC(=[Se])NC(=O)c1ccccc1` [BSU4], the minimum fungicidal concentration (MFC) is 8 µg/mL (≈ 24 µM) in test [1] (setting [6]), 16 µg/mL (≈ 48 µM) in test [1] (setting [7]) and 0.5 µg/mL (≈ 1.5 µM) in test [1] (setting [8]). The MICURE in test [2] (setting [9]) amounted to 0.5 mg/L; in test [2] (setting [10]), 0.25 mg/L. Also, the IC50 in test [3] is 2.33 nM and 2.34 nM. Besides, the MIC in test [4] (setting [11]) is 8 µg/mL (≈ 24 µM); in test [4] (setting [12]), 0.5 µg/mL (≈ 1.5 µM); in test [4] (setting [13]), 16 µg/mL (≈ 48 µM); in test [4] (setting [14]) it was 0.5 µg/mL (≈ 1.5 µM).

As for `O=C(NC(=[Se])Nc1cccc(Br)c1)c1ccccc1` [BSU9], the results for the MFC in test [1] (setting [6]), in test [1] (setting [7]) and in test [1] (setting [8]) were 4 µg/mL (≈ 10.5 µM), 1 µg/mL (≈ 2.62 µM) and 0.5 µg/mL (≈ 1.31 µM), respectively. Besides, the MICURE in test [2] (setting [9]) is 0.06 mg/L; in test [2] (setting [10]), 0.12 mg/L. For the same compound, in test [3], the IC50 was 2.31 nM and 2.3 nM. In addition, the MIC turned out to be 4 µg/mL (≈ 10.5 µM) in test [4] (setting [11]), 0.12 µg/mL (≈ 0.314 µM) in test [4] (setting [12]), 1 µg/mL (≈ 2.62 µM) in test [4] (setting [13]) and 0.12 µg/mL (≈ 0.314 µM) in test [4] (setting [14]).

Regarding `CC(C)(C)c1ccc(NC(=[Se])NC(=O)c2ccccc2)cc1` [BSU3], the MFC in test [1] (setting [6]) is more than 128 µg/mL; in test [1] (setting [7]) it was more than 16 µg/mL; in test [1] (setting [8]) it was more than 16 µg/mL. In test [2] (setting [10]), this compound returned an MICURE of 16 mg/L. The IC50 in test [3] was 0.95 nM and 0.946 nM. Besides, the MIC in test [4] (setting [11]) was more than 128 µg/mL; in test [4] (setting [12]), more than 128 µg/mL; in test [4] (setting [13]), more than 16 µg/mL; in test [4] (setting [14]) it was 16 µg/mL (≈ 44.5 µM).

For the compound `O=C(NC(=[Se])Nc1ccccc1[N+](=O)[O-])c1ccccc1` [BSU10], the figures for the MFC in test [1] (setting [6]), in test [1] (setting [7]) and in test [1] (setting [8]) were 16 µg/mL (≈ 45.9 µM), 16 µg/mL (≈ 45.9 µM) and 2 µg/mL (≈ 5.74 µM), respectively. Further, the MICURE in test [2] (setting [9]) and in test [2] (setting [10]) was 1 mg/L in each case. Also, in test [3], the IC50 is 8.68 nM and 8.67 nM. Further, the MIC came out at 8 µg/mL (≈ 23 µM) in test [4] (setting [11]), 1 µg/mL (≈ 2.87 µM) in test [4] (setting [12]), 8 µg/mL (≈ 23 µM) in test [4] (setting [13]) and 1 µg/mL (≈ 2.87 µM) in test [4] (setting [14]).
